Format in all cases: binding
Test [1] concerns the target T1, HeLa cell extract proteins (Homo sapiens, UniProt P27824).
T1 construct: endogenous in cells; host or cells: HeLa cell extract
T1 sequence (P27824 21-592): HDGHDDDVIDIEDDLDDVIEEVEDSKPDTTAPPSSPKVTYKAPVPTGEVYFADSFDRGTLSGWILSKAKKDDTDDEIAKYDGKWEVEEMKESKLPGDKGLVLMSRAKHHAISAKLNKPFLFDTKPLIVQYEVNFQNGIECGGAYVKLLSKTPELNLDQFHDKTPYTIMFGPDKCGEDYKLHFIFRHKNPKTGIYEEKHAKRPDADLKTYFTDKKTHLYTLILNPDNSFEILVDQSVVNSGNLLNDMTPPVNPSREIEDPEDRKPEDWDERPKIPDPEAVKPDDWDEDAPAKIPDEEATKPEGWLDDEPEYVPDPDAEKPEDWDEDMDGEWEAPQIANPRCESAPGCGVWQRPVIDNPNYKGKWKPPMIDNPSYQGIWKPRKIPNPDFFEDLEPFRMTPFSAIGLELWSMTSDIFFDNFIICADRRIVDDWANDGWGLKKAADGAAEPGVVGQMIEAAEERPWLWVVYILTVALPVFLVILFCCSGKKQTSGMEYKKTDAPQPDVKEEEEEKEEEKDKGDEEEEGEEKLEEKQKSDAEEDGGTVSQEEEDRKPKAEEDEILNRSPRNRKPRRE

Test [2] has as its target T2, HeLa cell extract proteins (Homo sapiens, UniProt P07900).
T2 construct: endogenous in cells; host or cells: HeLa cell extract

In test [3] the target is T3, HeLa cell extract proteins (Homo sapiens, UniProt P43686).
T3 construct: endogenous in cells; host or cells: HeLa cell extract
T3 sequence (P43686 whole entry): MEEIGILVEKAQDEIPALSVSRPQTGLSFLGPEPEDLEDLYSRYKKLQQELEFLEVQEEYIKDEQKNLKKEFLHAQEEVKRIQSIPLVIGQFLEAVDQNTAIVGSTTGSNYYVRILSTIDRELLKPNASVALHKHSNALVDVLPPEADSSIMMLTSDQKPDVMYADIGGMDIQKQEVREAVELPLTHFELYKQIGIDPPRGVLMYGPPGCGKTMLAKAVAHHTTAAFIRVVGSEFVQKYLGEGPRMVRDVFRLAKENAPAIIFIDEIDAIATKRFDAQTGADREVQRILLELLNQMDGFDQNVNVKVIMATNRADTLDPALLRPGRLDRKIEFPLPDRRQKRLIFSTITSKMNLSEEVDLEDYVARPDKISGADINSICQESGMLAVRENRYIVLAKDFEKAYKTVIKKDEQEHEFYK

The target of test [4] is T4, HeLa cell extract proteins (Homo sapiens, UniProt P48047).
T4 construct: endogenous in cells; host or cells: HeLa cell extract
T4 sequence (P48047 24-213): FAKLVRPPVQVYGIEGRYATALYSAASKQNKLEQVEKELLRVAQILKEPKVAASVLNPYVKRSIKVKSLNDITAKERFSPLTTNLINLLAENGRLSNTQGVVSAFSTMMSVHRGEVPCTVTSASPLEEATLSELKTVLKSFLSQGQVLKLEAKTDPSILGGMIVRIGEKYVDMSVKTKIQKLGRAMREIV

Test [5] has as its target T5, HeLa cell extract proteins (Homo sapiens, UniProt P08237).
T5 construct: endogenous in cells; host or cells: HeLa cell extract
T5 sequence (P08237 1-780): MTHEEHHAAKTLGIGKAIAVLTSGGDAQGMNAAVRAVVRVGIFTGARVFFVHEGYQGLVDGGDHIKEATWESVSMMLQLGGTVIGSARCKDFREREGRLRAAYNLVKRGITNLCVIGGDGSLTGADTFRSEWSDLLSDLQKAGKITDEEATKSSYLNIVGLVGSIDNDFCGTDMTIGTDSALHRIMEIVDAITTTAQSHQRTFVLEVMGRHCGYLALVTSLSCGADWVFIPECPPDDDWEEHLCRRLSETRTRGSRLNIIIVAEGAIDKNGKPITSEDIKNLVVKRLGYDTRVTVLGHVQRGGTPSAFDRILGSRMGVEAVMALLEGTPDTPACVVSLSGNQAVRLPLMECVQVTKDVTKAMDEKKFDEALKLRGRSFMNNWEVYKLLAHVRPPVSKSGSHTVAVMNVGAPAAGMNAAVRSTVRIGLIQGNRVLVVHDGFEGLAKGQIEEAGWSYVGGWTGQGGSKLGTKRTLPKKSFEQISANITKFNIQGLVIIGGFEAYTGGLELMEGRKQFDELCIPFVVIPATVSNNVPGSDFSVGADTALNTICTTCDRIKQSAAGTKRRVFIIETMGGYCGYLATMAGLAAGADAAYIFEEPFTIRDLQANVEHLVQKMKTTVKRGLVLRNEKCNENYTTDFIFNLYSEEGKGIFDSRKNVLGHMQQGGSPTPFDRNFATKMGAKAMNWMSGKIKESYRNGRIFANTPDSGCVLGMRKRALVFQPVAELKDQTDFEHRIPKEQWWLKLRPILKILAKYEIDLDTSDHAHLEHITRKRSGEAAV

In test [6] the target is T6, HeLa cell extract proteins (Homo sapiens, UniProt P16083).
T6 construct: endogenous in cells; host or cells: HeLa cell extract
T6 sequence (P16083 1-231): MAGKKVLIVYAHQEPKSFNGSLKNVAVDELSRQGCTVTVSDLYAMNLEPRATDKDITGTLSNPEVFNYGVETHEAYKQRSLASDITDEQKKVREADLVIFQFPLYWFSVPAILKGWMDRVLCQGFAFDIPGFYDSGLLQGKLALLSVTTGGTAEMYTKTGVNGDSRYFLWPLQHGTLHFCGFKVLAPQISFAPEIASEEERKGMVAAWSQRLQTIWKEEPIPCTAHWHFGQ

Test [7] addresses T7, HeLa cell extract proteins (Homo sapiens, UniProt P07686).
T7 construct: endogenous in cells; host or cells: HeLa cell extract
T7 sequence (P07686 122-556): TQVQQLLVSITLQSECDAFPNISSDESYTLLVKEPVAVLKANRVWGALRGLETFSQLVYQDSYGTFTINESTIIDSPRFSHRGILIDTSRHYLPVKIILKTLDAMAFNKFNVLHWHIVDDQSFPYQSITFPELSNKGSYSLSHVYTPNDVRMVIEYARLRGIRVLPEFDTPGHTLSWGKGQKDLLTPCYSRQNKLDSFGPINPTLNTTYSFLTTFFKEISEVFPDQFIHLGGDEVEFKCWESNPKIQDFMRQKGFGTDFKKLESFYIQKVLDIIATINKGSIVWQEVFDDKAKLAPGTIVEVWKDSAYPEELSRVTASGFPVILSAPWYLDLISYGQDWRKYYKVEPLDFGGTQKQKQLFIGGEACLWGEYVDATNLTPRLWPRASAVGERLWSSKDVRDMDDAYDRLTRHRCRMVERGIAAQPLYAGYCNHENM

For test [8], the target named is T8, HeLa cell extract proteins (Homo sapiens, UniProt P12277).
T8 construct: endogenous in cells; host or cells: HeLa cell extract
T8 sequence (P12277 whole entry): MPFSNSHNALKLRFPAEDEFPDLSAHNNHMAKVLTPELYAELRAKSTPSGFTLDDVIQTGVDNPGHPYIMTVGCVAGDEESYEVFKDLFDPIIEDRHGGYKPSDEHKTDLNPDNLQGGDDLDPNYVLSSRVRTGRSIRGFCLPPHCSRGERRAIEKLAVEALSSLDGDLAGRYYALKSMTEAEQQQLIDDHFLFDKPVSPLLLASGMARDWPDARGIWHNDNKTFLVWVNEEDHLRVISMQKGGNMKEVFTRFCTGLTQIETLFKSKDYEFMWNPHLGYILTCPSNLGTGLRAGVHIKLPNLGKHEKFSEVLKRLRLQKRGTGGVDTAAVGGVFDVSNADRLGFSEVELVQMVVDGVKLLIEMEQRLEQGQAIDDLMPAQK

The target in test [9] is T9, HeLa cell extract proteins (Homo sapiens, UniProt P11142).
T9 construct: endogenous in cells; host or cells: HeLa cell extract
T9 sequence (P11142 whole entry): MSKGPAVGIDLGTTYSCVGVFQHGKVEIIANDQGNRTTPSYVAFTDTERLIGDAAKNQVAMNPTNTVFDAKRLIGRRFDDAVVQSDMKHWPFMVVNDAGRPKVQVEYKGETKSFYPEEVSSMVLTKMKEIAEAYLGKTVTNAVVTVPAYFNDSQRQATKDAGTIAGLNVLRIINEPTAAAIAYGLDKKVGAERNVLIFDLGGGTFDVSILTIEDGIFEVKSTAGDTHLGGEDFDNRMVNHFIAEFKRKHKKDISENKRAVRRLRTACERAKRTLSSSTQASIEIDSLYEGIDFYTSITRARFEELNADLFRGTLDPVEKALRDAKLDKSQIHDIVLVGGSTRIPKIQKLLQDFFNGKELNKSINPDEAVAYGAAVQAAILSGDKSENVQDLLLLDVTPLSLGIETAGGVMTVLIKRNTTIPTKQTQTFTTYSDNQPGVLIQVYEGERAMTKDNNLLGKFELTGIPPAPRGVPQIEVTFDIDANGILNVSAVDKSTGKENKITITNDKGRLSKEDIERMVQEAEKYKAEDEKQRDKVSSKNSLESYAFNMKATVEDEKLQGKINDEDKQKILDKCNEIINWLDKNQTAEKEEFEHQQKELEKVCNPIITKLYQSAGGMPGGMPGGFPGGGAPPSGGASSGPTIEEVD

Where [10] appears, read: HeLa, protein HSP90AA1 (HEAT SHOCK PROTEIN 90KDA ALPHA (CYTOSOLIC), CLASS A MEMBER 1 ISOFORM 1.).
The mark [11] stands for this setting: HeLa, protein CKB (CREATINE KINASE B-TYPE.).

Like-named read-outs stand apart in the source and are kept apart here.

On to `Nc1nc2cccc(-c3ccccc3)c2n1Cc1ccc(Cl)c(Cl)c1` [compound 3], for which the “fold changes relative to vehicle control” value is given as 0.92 in [1] (protein CANX, HeLa); 0.94 fold in [2] (setting [10]); 1.04 in test [3] (protein PSMC4, HeLa); 0.9 in test [4] (protein ATP5O, HeLa); 1.01 in [5] (captured protein PFKM, HeLa); 0.99 in [6] (HeLa, protein NQO2). For the same molecule, the “fold changes relative to vehicle control” value in [7] (HeLa, protein HEXB) is recorded as 0.93; in test [8] (setting [11]) it was 0.92 fold; in test [9] (protein HSPA8, HeLa), 1.

Regarding `NCCOCCOCC(=O)Nc1nc2ncc(CNc3ccc(C(=O)NC(CCC(=O)O)C(=O)O)cc3)nc2c(=O)[nH]1` (stereo not drawn) [compound 6], the “fold changes relative to vehicle control” value in [1] (HeLa, captured protein CANX) was found to be 1.35; in [2] (HeLa, protein HSP90AA1), 1.32; in test [3] (protein PSMC4, HeLa) it was 1.13; in [4] (HeLa, captured protein ATP5O) it was 0.97; in test [5] (HeLa, captured protein PFKM), 1.02; in [6] (protein NQO2, HeLa), 0.72. Also, the “fold changes relative to vehicle control” value in test [7] (HeLa, protein HEXB) was determined as 1.05; in test [8] (HeLa, protein CKB), 1.23; in test [9] (HeLa, captured protein HSPA8), 0.98.

In the case of `Nc1nc2[nH]cc(CCc3ccc(C(=O)N[C@@H](CCC(=O)O)C(=O)O)cc3)c2c(=O)[nH]1` [PTX, pemetrexed], the “fold changes relative to vehicle control” value in test [1] is given as 1.25; in test [2], 1.13; in test [3], 1.01; in test [4], 1.01; in test [5], 0.98; in test [6] it was 0.16. Also, the results for the “fold changes relative to vehicle control” value in [7], in test [8] and in [9] were 1, 1.11 and 0.99, respectively.

In the case of `Nc1nc2c(c(=O)[nH]1)N(C=O)C(CNc1ccc(C(=O)N[C@@H](CCC(=O)O)C(=O)O)cc1)CN2` (stereo partly drawn) [LEU, leucovorin], the “fold changes relative to vehicle control” value came out at 1.09 in test [1] (HeLa, captured protein CANX); 1.06 in test [2] (HeLa, protein HSP90AA1); 0.97 in test [3] (protein PSMC4, HeLa); 1.01 in [4] (HeLa, captured protein ATP5O); 1.01 in test [5] (HeLa, captured protein PFKM); 1.1 in test [6] (protein NQO2, HeLa). Further, the “fold changes relative to vehicle control” value in test [7] (HeLa, protein HEXB) stood at 0.97; in test [8] (HeLa, protein CKB), 1.01; in test [9] (HeLa, captured protein HSPA8), 1.07.

Turning to `CCCCCCOc1ccc(Cc2cnc(N)nc2N)cc1` [compound 1], the “fold changes relative to vehicle control” value in test [1] (protein CANX, HeLa) is recorded as 1.3; in test [2] (setting [10]) it was 1.4 fold; in test [3] (protein PSMC4, HeLa) it was 1.13; in [4] (protein ATP5O, HeLa), 0.98; in [5] (captured protein PFKM, HeLa), 1.15; in test [6] (HeLa, protein NQO2), 0.91. The “fold changes relative to vehicle control” value worked out at 1.04 in [7] (HeLa, protein HEXB); 1.55 fold in test [8] (setting [11]); 0.99 in test [9] (protein HSPA8, HeLa).

In the case of `NCCCNc1ccc(C(=O)NC(CCC(=O)O)C(=O)O)cc1` (stereo not drawn) [compound 7], the “fold changes relative to vehicle control” value in [1] (HeLa, captured protein CANX) is 1.06; in [2] (HeLa, protein HSP90AA1) it was 0.92; in test [3] (protein PSMC4, HeLa), 0.98; in [4] (HeLa, captured protein ATP5O), 1.02; in [5] (HeLa, captured protein PFKM), 1.02; in test [6] (protein NQO2, HeLa), 1.04. The “fold changes relative to vehicle control” value in [7] (HeLa, protein HEXB) is on record as 1.06; in test [8] (HeLa, protein CKB), 0.93; in test [9] (HeLa, captured protein HSPA8), 0.99.

In the case of `CCCCCCOc1cccc(Cc2cnc(N)nc2N)c1` [compound 2], the “fold changes relative to vehicle control” value in [1] (protein CANX, HeLa) was 2.38; in [2] (setting [10]), 2.39 fold; in test [3] (protein PSMC4, HeLa) it was 1.33; in test [4] (protein ATP5O, HeLa), 0.98; in test [5] (captured protein PFKM, HeLa) it was 1.2; in test [6] (HeLa, protein NQO2), 0.7. In addition, the “fold changes relative to vehicle control” value is given as 1.06 in test [7] (HeLa, protein HEXB); 2.55 fold in [8] (setting [11]); 1.11 in [9] (protein HSPA8, HeLa).
